Test results reported in ChEMBL document CHEMBL1150722, “Inhibitory effects of various flavonoids isolated from leaves of persimmon on angiotensin-converting enzyme activity” (J Nat Prod, 1987).
pIC50: −log10 of the molar value.

How the values were obtained:
[1] = target: T1, Angiotensin-converting enzyme (Rattus norvegicus) (UniProt P47820); assay: Inhibition of rat lung ACE at 150 ug/ml relative to control
T1 sequence (whole entry): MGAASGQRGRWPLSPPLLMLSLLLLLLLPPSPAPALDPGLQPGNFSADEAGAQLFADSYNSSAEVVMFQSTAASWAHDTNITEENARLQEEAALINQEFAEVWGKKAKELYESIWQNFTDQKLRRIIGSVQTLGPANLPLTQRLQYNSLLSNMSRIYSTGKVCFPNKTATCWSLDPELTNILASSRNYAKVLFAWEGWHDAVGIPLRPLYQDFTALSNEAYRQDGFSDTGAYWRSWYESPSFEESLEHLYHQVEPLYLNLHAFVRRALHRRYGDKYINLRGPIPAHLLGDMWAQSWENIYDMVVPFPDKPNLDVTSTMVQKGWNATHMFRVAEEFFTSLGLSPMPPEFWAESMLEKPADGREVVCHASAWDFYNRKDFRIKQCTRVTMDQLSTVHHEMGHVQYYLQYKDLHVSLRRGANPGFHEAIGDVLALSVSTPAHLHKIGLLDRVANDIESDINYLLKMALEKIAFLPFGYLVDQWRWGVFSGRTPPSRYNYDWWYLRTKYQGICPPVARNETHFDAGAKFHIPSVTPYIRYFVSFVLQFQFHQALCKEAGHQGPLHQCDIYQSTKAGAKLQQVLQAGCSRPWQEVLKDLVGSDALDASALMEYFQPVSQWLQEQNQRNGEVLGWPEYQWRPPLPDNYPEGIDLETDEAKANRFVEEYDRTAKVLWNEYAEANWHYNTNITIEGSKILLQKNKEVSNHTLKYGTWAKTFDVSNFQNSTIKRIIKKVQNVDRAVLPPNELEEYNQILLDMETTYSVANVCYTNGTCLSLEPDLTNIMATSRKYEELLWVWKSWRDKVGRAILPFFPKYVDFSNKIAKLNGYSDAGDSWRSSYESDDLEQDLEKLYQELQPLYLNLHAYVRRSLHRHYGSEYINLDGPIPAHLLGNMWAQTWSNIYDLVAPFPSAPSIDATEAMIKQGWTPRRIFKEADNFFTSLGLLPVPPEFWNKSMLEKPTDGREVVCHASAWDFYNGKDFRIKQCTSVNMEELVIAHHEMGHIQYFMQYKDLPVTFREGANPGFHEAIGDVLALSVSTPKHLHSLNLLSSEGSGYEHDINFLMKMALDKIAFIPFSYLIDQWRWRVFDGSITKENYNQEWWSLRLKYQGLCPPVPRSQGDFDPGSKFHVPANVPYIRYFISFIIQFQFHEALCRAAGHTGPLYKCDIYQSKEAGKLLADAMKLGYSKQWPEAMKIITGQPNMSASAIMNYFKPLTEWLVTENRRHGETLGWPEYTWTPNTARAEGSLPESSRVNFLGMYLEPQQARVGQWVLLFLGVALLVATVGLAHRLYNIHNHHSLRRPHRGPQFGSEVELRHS

[2] = target: T2, Angiotensin-converting enzyme (Rattus norvegicus, UniProt P47820); assay: Inhibition of rat lung ACE
T2 sequence (P47820 whole entry): T1 sequence (whole entry)

[3] = target: T1, Angiotensin-converting enzyme (Rattus norvegicus); assay: Inhibition of rat lung ACE at 56 ug/ml relative to control
[4] = target: T1, Angiotensin-converting enzyme (Rattus norvegicus); assay: Inhibition of rat lung ACE at 300 ug/ml relative to control
[5] = target: T1, Angiotensin-converting enzyme (Rattus norvegicus); assay: Inhibition of rat lung ACE at 38 ug/ml relative to control
[6] = target: T1, Angiotensin-converting enzyme (Rattus norvegicus); assay: Inhibition of rat lung ACE at 225 ug/ml relative to control
[7] = target: T1, Angiotensin-converting enzyme (Rattus norvegicus); assay: Inhibition of rat lung ACE at 113 ug/ml relative to control
[8] = target: T1, Angiotensin-converting enzyme (Rattus norvegicus); assay: Inhibition of rat lung ACE at 75 ug/ml relative to control

Row | Compound | inhibition [1] | pIC50 [2] | inhibition [3] | inhibition [4] | inhibition [5] | inhibition [6] | inhibition [7] | inhibition [8]
1 | O=C(O[C@H]1[C@H](Oc2c(-c3ccc(O)cc3)oc3cc(O)cc(O)c3c2=O)O[C@H](CO)[C@@H](O)[C@@H]1O)c1cc(O)c(O)c(O)c1 | 35% | 3.33 | 6% | 53% | 3% | 39% | 35% | 15%
2 | O=c1c(O[C@@H]2O[C@H](CO)[C@@H](O)[C@H](O)[C@H]2O)c(-c2ccc(O)c(O)c2)oc2cc(O)cc(O)c12 | 19% |  | 0% |  | 0% | 19% | 3% | 9%
3 | O=c1c(O[C@@H]2O[C@H](CO)[C@@H](O)[C@H](O)[C@H]2O)c(-c2ccc(O)cc2)oc2cc(O)cc(O)c12 [ASTRAGALIN] | 53% | 3.40 | 2% | 67% | 0% | 28% | 31% | 22%
4 | O=C(O[C@H]1[C@H](Oc2c(-c3ccc(O)c(O)c3)oc3cc(O)cc(O)c3c2=O)O[C@H](CO)[C@@H](O)[C@@H]1O)c1cc(O)c(O)c(O)c1 | 39% |  | 12% | 48% | 10% | 34% | 39% | 18%
